# From ChEMBL document CHEMBL6120962, “New Mitochondria-Targeted Fisetin Derivative Compromises Mitophagy and Limits Survival of Drug-Induced Senescent Breast Cancer Cells” (J Med Chem, 2024)
# Activity calls are given as the source filed them. The rule behind the calls is not given here.
# Experiments:
# ZR-75-30 = assay: Induction of senescence in human ZR-75-30 cells assessed as […] in beta-galactosidase activity at 5 uM incubated for 24 hrs by immunostaining based imaging cytometric analysis; format: functional, cell-based
# HCC1428 [1] = assay: Induction of senescence in human HCC1428 cells assessed as […] in beta-galactosidase activity at 5 uM incubated for 24 hrs by immunostaining based imaging cytometric analysis; format: functional, cell-based
# Mitochondrial membrane [2] = assay: Induction of mitochondrial membrane potential depolarization in human HCC1428 cells assessed as increase in fraction of depolarized dead cells at 5 uM incubated for 24 hrs by 7-AAD staining based flow cytometric analysis; format: cell membranes
# HCC1500 = assay: Induction of apoptosis in human HCC1500 cells assessed as phosphatidylserine externalization at 1 to 5 uM incubated for 24 hrs by Annexin V-FITC staining based flow cytometric analysis; format: functional, cell-based; details: dose 1-5 µM
# MCF-10F = assay: Induction of apoptosis in tamoxifen-induced senescent human MCF-10F cells assessed as assessed as phosphatidylserine externalization at 1 to 5 uM incubated for 24 hrs by Annexin V-FITC staining based flow cytometric analysis; format: functional, cell-based; details: dose 1-5 µM
# HCC1428 [3] = assay: Induction of ubiquitin-dependent mitophagy in tamoxifen-induced senescent human HCC1428 cells assessed as increase in parkin level at 5 uM by immunostaining based imaging cytometric analysis; format: functional, cell-based
# MCF7 = assay: Antitumor activity against ER-positive human MCF7 cells xenografted in Danio rerio embryo assessed as increase in Bax mRNA level at 1 to 5 uM administered for 48 hrs by RT-PCR analysis; format: functional, cell-based; details: dose 1-5 µM
# Mitochondrial membrane [4] = assay: Induction of mitochondrial membrane potential depolarization in tamoxifen-induced senescent human HCC1500 cells assessed as increase in depolarized dead cell level at 1 to 5 uM incubated for 24 hrs by 7-AAD staining based flow cytometric analysis; format: cell membranes; details: dose 1-5 µM
# HCC1428 [5] = assay: Induction of apoptosis in tamoxifen-induced senescent human HCC1428 cells assessed as decrease in HSP90 level incubated for 24 hrs by immunostaining based imaging cytometric analysis; format: functional, cell-based
# HCC1428 [6] = assay: Induction of oxidative stress in tamoxifen-induced senescent human HCC1428 cells assessed as increase in cytosolic SOD1 level at 1 to 5 uM incubated for 24 hrs by MitoSOX red superoxide indicator based fluorescence analysis; format: functional, cell-based; details: dose 1-5 µM
# HCC1428 [7] = assay: Induction of autophagosome formation in tamoxifen-induced senescent human HCC1428 cells assessed as increase in LC3B level at 1 to 5 uM by immunostaining based imaging cytometric analysis; format: functional, cell-based; details: dose 1-5 µM
# HCC1428 [8] = assay: Induction of mitochondrial dysfunction in human HCC1428 cells assessed as decrease in maximal respiration at 5 uM incubated for 6 hrs by real time analysis; format: functional, cell-based
# Mitochondrial membrane [9] = assay: Induction of mitochondrial membrane potential depolarization in tamoxifen-induced senescent human CAMA-1 cells assessed as increase in depolarized dead cell level at 1 to 5 uM incubated for 24 hrs by 7-AAD staining based flow cytometric analysis; format: cell membranes; details: dose 1-5 µM
smiles,measurement,setting,value
CC(=O)Oc1ccc2c(=O)c(OCCCC[P+](c3ccccc3)(c3ccccc3)c3ccccc3)c(-c3ccc4c(c3)OC(c3ccccc3)(c3ccccc3)O4)oc2c1.[I-],Activity,ZR-75-30,Active
same,Activity,HCC1428 [1],Active; Most Pronounced Effect Observed
same,Activity,Mitochondrial membrane [2],Active
same,Activity,HCC1500,Active
same,Activity,MCF-10F,Active; Slight Effect Observed
same,Activity,HCC1428 [3],Active
same,Activity,MCF7,Active
same,Activity,Mitochondrial membrane [4],Active
same,Activity,HCC1428 [5],Active
same,Activity,HCC1428 [6],Active
same,Activity,HCC1428 [7],inactive
same,Activity,HCC1428 [8],Active
same,Activity,Mitochondrial membrane [9],Active
